Laboratory results reported in US5942494A, “Stimulation of gene expression and synthesis of heat shock protein 72/73 (HSP 70)” (The Trustees of Columbia University in the City of New York, priority 1996, dated 1999).
Square brackets hold non-standard residues; d marks the D form. Peptide text beside a SMILES is read from it. Nle = CCCC[C@H](N)C(=O)O

Tests used:
Hsp70 = assay: Pulse-chase turnover of radiolabeled Hsp70 in HepG2 cells; type: cell-based, human
Procedure: FIGS. 4A-4B: Effects of ALLN on Hsp70 turnover and synthesis rates in HepG2 cells. Confluent culture dishes were preincubated for 4 hours with serum-free MEM containing either 1.5% BSA alone (Control) or BSA plus 40 μg/ml of ALLN (ALLN). (A) The preincubated cells were radiolabeled with 3H-leucine (150 μCi/ml) in serum-free, leucine-free medium with/without ALLN for 20 min., washed 3 times with medium free of isotope and then chased in serum-free medium containing BSA with/without ALLN for up to 20 hours. At the indicated time points, cells were harvested and lysed. Samples were immediately stored in a -80° C. freezer. Immunoprecipitation of Hsp70 was performed as described in FIG. 1. Data at each time point were presented as means of cpm from duplicate dishes. (B) . […]
FIGS. 8A-8C: Effects of ALLN on Hsp70 synthesis and turnover rates in HepG2 cells. […] Immunoprecipitates were analyzed on SDS-PAGE and fluorography (A) and also aliquoted for scintillation counting (B). […]
HepG2 cells were preincubated for 4 hours in serum-free MEM and then radiolabeled with ^3 H-Leucine (150 μCi/ml) in a serum-free, leucine-free medium. […] Cell lysates containing equal amounts of trichloroacetic acid (TCA)-insoluble radioactivity were used for immunoprecipitations by incubating with individual monoclonal antibody (1 μg/ml) for 2.5 hours at 4° C. […]

[1] = test system: protein of about 80-90 kDa; assay: Whole-cell protein pattern of [3H]-leucine-labeled HepG2 lysates on SDS-PAGE; type: cell-based, human; settings: ALLN-treated versus control HepG2 cells, FIG. 2A
Excerpt: It was reported (Liu, et al., 1989) that in human diploid fibroblasts, heat shock treatment could induce the synthesis of several members of the Hsp family, including Hsp25, Hsp50, Hsp64, Hsp72, Hsp78, Hsp89 and Hsp98. Short, sublethal episodes of cardiac ischemia increase both Hsp70 and Hsp60 (Marber, et al., 1988). Such complex induction patterns may reflect an increased requirement for several of these Hsps, i.e., the need for several of these Hsps to increase, in order to prevent or protect pre-existing proteins from denaturation. […] It would be interesting to characterize this polypeptide and to identify its roles in the ALLN-induced cellular response.

calpain = settings: Rock, et al., 1994; cited from earlier work

## CCCC[C@@H](C=O)NC(=O)[C@H](CC(C)C)NC(=O)[C@H](CC(C)C)NC(C)=O [ALLN, N-acetyl-leucyl-leucyl-norleucinal] (Ac-Leu-Leu-[Nle]-aldehyde)
Hsp70; ALLN 40 μg/ml, pulse-chase, HepG2
  Half life of newly synthesized Hsp70 in the presence of ALLN: about 6 hours
Hsp70; ALLN versus no ALLN
  Increase in the half-life of Hsp70: 3-4 fold
[1]
  Synthesis of a protein of about 80-90 kDa: also increased
calpain
  Activity against calpain: significant activities
